Results as given in ChEMBL document CHEMBL5107958, “Phosphoramidate Prodrugs Continue to Deliver, The Journey of Remdesivir (GS-5734) from RSV to SARS-CoV-2” (ACS Med Chem Lett, 2022).

What was measured:
Nipah virus [1] = experiment: Antiviral activity against Nipah M1999 infected in human HeLa cells assessed as reduction in viral replication incubated for 48 to 144 hrs by reporter virus assay; type: functional, organism-based; conditions: Henipavirus nipahense
[2] = Half life in ferret at 10 mg/kg, iv; type: ADME, organism-based, Mustela putorius furo; conditions: in vivo
[3] = Prodrug conversion in human macrophages assessed as half life of triphosphate metabolite; type: ADME, cell-based; conditions: macrophage
[4] = Half life in Rhesus monkey at 10 mg/kg, iv; type: ADME, organism-based, Macaca mulatta; conditions: in vivo
[5] = Stability of prodrug in mouse assessed as half life; type: ADME; conditions: in vivo
[6] = Volume of distribution at steady state in ferret at 10 mg/kg, iv; type: ADME, organism-based, Mustela putorius furo; conditions: in vivo, read-out: Vdss
Marburgvirus = experiment: Potency index, ratio of EC50 of GS-441524 to EC50 of test compound for antiviral activity against MARV Rec. Bat371-GFP infected in human Huh-7 cells assessed as reduction in viral replication incubated for 48 to 144 hrs by fluorescence based assay; type: functional; conditions: time 48-144 hrs
[7] = AUC (0 to infinity) in human at 2.5 mg/kg, iv; type: ADME, organism-based; parameters: time infinity, dose 2.5 mg/kg, route iv; conditions: in vivo
SARS-CoV-2 [8] = experiment: Antiviral activity against SARS-CoV-2 infected in African green monkey Vero E6 cells assessed as reduction in viral replication; type: functional, organism-based; conditions: Severe acute respiratory syndrome coronavirus 2, Vero C1008
[9] = Prodrug conversion in ferret assessed as AUC (0 to last) of parent nucleoside compound at 10 mg/kg, iv; type: ADME, organism-based, Mustela putorius furo; parameters: time 0 - last, dose 10 mg/kg, route iv; conditions: in vivo
Measles morbillivirus [10] = experiment: Potency index, ratio of EC50 of GS-441524 to EC50 of test compound for antiviral activity against Measles Rec.rMVEZGFP(3) infected in human HeLa cells assessed as reduction in viral replication incubated for 48 to 144 hrs by fluorescence based assay; type: functional; conditions: time 48-144 hrs
Measles morbillivirus [11] = experiment: Potency index, ratio of EC50 of GS-441524 to EC50 of test compound for antiviral activity against Measles virus infected in HMVEC cells assessed as reduction in viral replication; type: functional
[12] = Clearance in human at 2.5 mg/kg, iv; type: ADME, organism-based; conditions: in vivo
SARS-CoV-2 [13] = experiment: Potency index, ratio of EC50 of GS-441524 to EC50 of test compound for antiviral activity against SARS-CoV-2 infected in human Huh-7 cells assessed as reduction in virus-induced cytopathic effect at MOI of 0.0037 measured after 4 days by MTS assay; type: functional, Severe acute respiratory syndrome coronavirus 2; conditions: time 4 day
Measles morbillivirus [14] = experiment: Antiviral activity against Measles virus infected in HMVEC cells assessed as reduction in viral replication; type: functional, organism-based
SARS-CoV-2 [15] = experiment: Antiviral activity against SARS-CoV-2 infected in human Calu-3 cells assessed as reduction in viral replication at MOI of 0.01 measured after 72 hrs by qRT-PCR analysis; type: functional, organism-based; conditions: Severe acute respiratory syndrome coronavirus 2, Calu-3, 72 h
SARS-CoV-2 [16] = experiment: Antiviral activity against SARS-CoV-2 infected in HAE cells assessed as reduction in viral replication at MOI of 0.5 incubated for 2 hrs followed by virus removal measured after 48 hrs by plaque assay; type: functional, organism-based; conditions: Severe acute respiratory syndrome coronavirus 2, HAE
Nipah virus [17] = experiment: Antiviral activity against Nipah virus infected in African green monkey assessed as animal survival at 10 mg/kg, iv qd relative to control; type: functional; conditions: Henipavirus nipahense

SMILES: CCC(CC)OC(=O)[C@H](C)N[P@](=O)(OC[C@H]1O[C@@](C#N)(c2ccc3c(N)ncnn23)[C@H](O)[C@@H]1O)Oc1ccccc1
- EC50 (Nipah virus [1]): 66 nM
- half-life [2]: 11 min
- t1/2 [3]: 840 min
- half-life [4]: 23 min
- t1/2 [5]: 5 min
- Vd [6]: 0.34 L/kg
- Ratio (Marburgvirus): 136
- AUC(0-inf) [7]: 5 µM·h
- EC50 (SARS-CoV-2 [8]): 740 nM
- AUClast [9]: 18.2 µM·h
- Ratio (Measles morbillivirus [10]): 27
- Ratio (Measles morbillivirus [11]): 13
- clearance [12]: 14.3 mL/min/kg
- Ratio (SARS-CoV-2 [13]): >1000
- EC50 (Measles morbillivirus [14]): 60 nM
- EC50 (SARS-CoV-2 [15]): 110 nM
- EC50 (SARS-CoV-2 [16]): 10 nM
- survival at 10 mg/kg (Nipah virus [17]): 100%
